Results as given in patent publication US7612211B2, “Benzimidazole TRPV1 inhibitors” (Janssen Pharmaceutica N.V., priority 2006, dated 2009).

Molecular target: T1, hTRPV1 (Homo sapiens, UniProt Q8NER1)
T1 construct: expressed in transfected cells; host or cells: HEK293
Test: Human TRPV1 (hTRPV1) functional assay, FLIPR intracellular Ca2+, capsaicin challenge
Format: cell-based
Settings: HEK293 cells expressing hTRPV1, capsaicin 0.030 μM challenge; for IC50: derived from a variety of test concentrations, read-out: IC50 value (symbol c); for inhibition at 0.2 µM: test concentration of 0.2 μm, read-out: percent inhibition (symbol b)
Procedure: The functional activity of the test compounds was determined by measuring changes in intracellular calcium concentration using a Ca^++-sensitive fluorescent dye and FLIPR™ technology. Increases in Ca^++ concentration were readily detected upon challenge with capsaicin.
HEK293 cells expressing hTRPV1 were grown on poly-D-lysine coated 384 well black-walled plates (BD 354663) and 1 day later loaded with Calcium 3 Dye for 35 min at 37° C., 5% CO2 and then for 25 min at room temperature, and subsequently tested for agonist-induced increases in intracellular Ca^2+ levels using FLIPR™ technology. Cells were challenged with test compounds (at varying concentrations) and intracellular Ca^2+ was measured for 5 min prior to the addition of capsaicin to all wells to achieve a final concentration of 0.030 μM eliciting ˜80% maximal response.
EC50 or IC50 values were determined from concentration-response studies, which were generated using the average of quadruplicate wells for each data point. The symbol “a” represents percent inhibition obtained at a test concentration of 0.5 μm; the symbol “b” represents percent inhibition obtained at a test concentration of 0.2 μm; the symbol “c” represents an IC50 value (nM) derived from a variety of test concentrations. The term “NA” means that the result is not applicable for a particular compound.

T1 sequence (Q8NER1 whole entry): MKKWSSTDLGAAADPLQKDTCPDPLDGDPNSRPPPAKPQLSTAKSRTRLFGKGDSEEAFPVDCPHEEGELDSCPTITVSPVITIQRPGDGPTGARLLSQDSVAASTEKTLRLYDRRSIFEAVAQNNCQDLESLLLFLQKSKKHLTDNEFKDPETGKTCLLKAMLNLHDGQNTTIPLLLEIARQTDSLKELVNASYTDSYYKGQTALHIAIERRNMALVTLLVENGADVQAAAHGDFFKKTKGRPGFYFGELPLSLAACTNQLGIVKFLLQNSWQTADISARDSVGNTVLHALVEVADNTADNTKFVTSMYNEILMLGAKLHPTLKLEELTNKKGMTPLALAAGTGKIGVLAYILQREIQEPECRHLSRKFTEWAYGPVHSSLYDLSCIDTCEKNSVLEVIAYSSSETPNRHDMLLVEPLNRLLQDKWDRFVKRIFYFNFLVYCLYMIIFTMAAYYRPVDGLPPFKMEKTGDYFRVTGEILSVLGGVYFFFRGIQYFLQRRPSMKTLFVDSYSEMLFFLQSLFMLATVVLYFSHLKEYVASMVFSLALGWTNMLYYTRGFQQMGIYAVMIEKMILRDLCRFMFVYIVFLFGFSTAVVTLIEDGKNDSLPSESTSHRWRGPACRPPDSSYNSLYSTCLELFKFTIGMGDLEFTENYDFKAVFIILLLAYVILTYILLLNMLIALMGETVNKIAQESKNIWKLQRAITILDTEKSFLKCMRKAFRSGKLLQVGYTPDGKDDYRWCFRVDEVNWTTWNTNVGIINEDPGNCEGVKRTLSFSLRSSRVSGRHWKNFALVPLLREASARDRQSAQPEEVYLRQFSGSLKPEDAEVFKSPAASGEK

| IC50 [nM] | inhibition at 0.2 µM [%] | SMILES |
| --- | --- | --- |
| 66 | 77 | CS(=O)(=O)c1ccccc1-c1ccc2[nH]c(COc3ccc(Br)cc3)nc2c1 [Cpd 61, 2-(4-bromo-phenoxymethyl)-5-(2-methanesulfonyl-phenyl)-1H-benzoimidazole] |
|  | 24 | CS(=O)(=O)c1ccccc1-c1ccc2[nH]c(COc3ccc(F)cc3F)nc2c1 [Cpd 62, 2-(2,4-difluoro-phenoxymethyl)-5-(2-methanesulfonyl-phenyl)-1H-benzoimidazole] |
|  | 37 | CS(=O)(=O)c1ccccc1-c1ccc2[nH]c(COc3ccc(F)c(F)c3)nc2c1 [Cpd 63, 2-(3,4-difluoro-phenoxymethyl)-5-(2-methanesulfonyl-phenyl)-1H-benzoimidazole] |
|  | 58 | CS(=O)(=O)c1ccccc1-c1ccc2[nH]c(COc3ccc(Cl)cc3Cl)nc2c1 [Cpd 64, 2-(2,4-dichloro-phenoxymethyl)-5-(2-methanesulfonyl-phenyl)-1H-benzoimidazole] |
| 58 | 91 | CS(=O)(=O)c1ccccc1-c1ccc2[nH]c(COc3ccc(Cl)c(Cl)c3)nc2c1 [Cpd 65, 2-(3,4-dichloro-phenoxymethyl)-5-(2-methanesulfonyl-phenyl)-1H-benzoimidazole] |
| 81 | 85 | CS(=O)(=O)c1ccccc1-c1ccc2[nH]c(COc3ccc(Cl)cc3F)nc2c1 [Cpd 66, 2-(4-chloro-2-fluoro-phenoxymethyl)-5-(2-methanesulfonyl-phenyl)-1H-benzoimidazole] |
|  | 70 | CS(=O)(=O)c1ccccc1-c1ccc2[nH]c(COc3ccc(F)c(Cl)c3)nc2c1 [Cpd 67, 2-(3-chloro-4-fluoro-phenoxymethyl)-5-(2-methanesulfonyl-phenyl)-1H-benzoimidazole] |
|  | 59 | CS(=O)(=O)c1ccccc1-c1ccc2[nH]c(COc3cc(F)c(F)c(F)c3)nc2c1 [Cpd 68, 5-(2-methanesulfonyl-phenyl)-2-(3,4,5-trifluoro-phenoxymethyl)-1H-benzoimidazole] |
|  | 21 | CS(=O)(=O)c1ccccc1-c1ccc2[nH]c(COc3cc(F)c(F)cc3F)nc2c1 [Cpd 69, 5-(2-methanesulfonyl-phenyl)-2-(2,4,5-trifluoro-phenoxymethyl)-1H-benzoimidazole] |
|  | 33 | CS(=O)(=O)c1ccccc1-c1ccc2[nH]c(COc3ccc(F)c(F)c3F)nc2c1 [Cpd 70, 5-(2-methanesulfonyl-phenyl)-2-(2,3,4-trifluoro-phenoxymethyl)-1H-benzoimidazole] |
|  | 43 | CS(=O)(=O)c1ccccc1-c1ccc2[nH]c(COc3cccc(C(F)(F)F)c3F)nc2c1 [Cpd 71, 2-(2-fluoro-3-trifluoromethyl-phenoxymethyl)-5-(2-methanesulfonyl-phenyl)-1H-benzoimidazole] |
| 30 | 96 | CS(=O)(=O)c1ccccc1-c1ccc2[nH]c(COc3ccc(F)c(C(F)(F)F)c3)nc2c1 [Cpd 72, 2-(4-fluoro-3-trifluoromethyl-phenoxymethyl)-5-(2-methanesulfonyl-phenyl)-1H-benzoimidazole] |
|  | 33 | CS(=O)(=O)c1ccccc1-c1ccc2[nH]c(COc3cc(C(F)(F)F)cc(C(F)(F)F)c3)nc2c1 [Cpd 73, 2-(3,5-bis-trifluoromethyl-phenoxymethyl)-5-(2-methanesulfonyl-phenyl)-1H-benzoimidazole] |
|  | 60 | CS(=O)(=O)c1ccccc1-c1ccc2[nH]c(COc3ccccc3C(F)(F)F)nc2c1 [Cpd 74, 5-(2-methanesulfonyl-phenyl)-2-(2-trifluoromethyl-phenoxymethyl)-1H-benzoimidazole] |
| 68 | 93 | CS(=O)(=O)c1ccccc1-c1ccc2[nH]c(COc3cccc(C(F)(F)F)c3)nc2c1 [Cpd 75, 5-(2-methanesulfonyl-phenyl)-2-(3-trifluoromethyl-phenoxymethyl)-1H-benzoimidazole] |

Continued, compound first:

| SMILES | IC50 [nM] | inhibition at 0.2 µM [%] |
| --- | --- | --- |
| NS(=O)(=O)c1ccccc1-c1ccc2[nH]c(CSc3ccc(C(F)(F)F)cc3)nc2c1 [Cpd 41, 2-[2-(4-trifluoromethyl-phenylsulfanylmethyl)-1H-benzoimidazol-5-yl]-benzenesulfonamide] | 4.9 | 98 |
| NS(=O)(=O)c1ccccc1-c1ccc2[nH]c(CSc3ccc(Cl)cc3)nc2c1 [Cpd 42, 2-[2-(4-chloro-phenylsulfanylmethyl)-1H-benzoimidazol-5-yl]-benzenesulfonamide] | 75 | 93 |
| NS(=O)(=O)c1ccccc1-c1ccc2[nH]c(CSc3ccc(OC(F)(F)F)cc3)nc2c1 [Cpd 43, 2-[2-(4-trifluoromethoxy-phenylsulfanylmethyl)-1H-benzoimidazol-5-yl]-benzenesulfonamide] | 123 | 87 |
| NS(=O)(=O)c1ccccc1-c1ccc2[nH]c(CS(=O)(=O)c3ccc(C(F)(F)F)cc3)nc2c1 [Cpd 44, 2-[2-(4-trifluoromethyl-benzenesulfonylmethyl)-1H-benzoimidazol-5-yl]-benzenesulfonamide] |  | 12 |
| NS(=O)(=O)c1ccccc1-c1ccc2[nH]c(CS(=O)(=O)c3ccc(Cl)cc3)nc2c1 [Cpd 45, 2-[2-(4-chloro-benzenesulfonylmethyl)-1H-benzoimidazol-5-yl]-benzenesulfonamide] |  | 2 |
| NS(=O)(=O)c1ccccc1-c1ccc2[nH]c(CS(=O)(=O)c3ccc(OC(F)(F)F)cc3)nc2c1 [Cpd 46, 2-[2-(4-trifluoromethoxy-benzenesulfonylmethyl)-1H-benzoimidazol-5-yl]-benzenesulfonamide] |  | 5 |
| NS(=O)(=O)c1ccccc1-c1ccc2[nH]c(CNc3ccc(C(F)(F)F)cc3)nc2c1 [Cpd 47, 2-{2-[(4-trifluoromethyl-phenylamino)-methyl]-1H-benzoimidazol-5-yl}-benzenesulfonamide] |  | 46 |
| NS(=O)(=O)c1ccccc1-c1ccc2[nH]c(CNc3ccc(OC(F)(F)F)cc3)nc2c1 [Cpd 48, 2-{2-[(4-trifluoromethoxy-phenylamino)-methyl]-1H-benzoimidazol-5-yl}-benzenesulfonamide] |  | 41 |
| CC(=O)c1ccccc1-c1ccc2[nH]c(COc3ccc(C(F)(F)F)cc3)nc2c1 [Cpd 49, 1-{2-[2-(4-trifluoromethyl-phenoxymethyl)-1H-benzoimidazol-5-yl]-phenyl}-ethanone] | 106 | 89 |
| CC(C)(O)c1ccccc1-c1ccc2[nH]c(COc3ccccc3)nc2c1 [Cpd 50, 2-[2-(2-phenoxymethyl-1H-benzoimidazol-5-yl)-phenyl]-propan-2-ol] | 91 | 81 |
| CNS(=O)(=O)c1ccccc1-c1ccc2[nH]c(COc3ccc(C(C)C)cc3)nc2c1 [Cpd 51, 2-[2-(4-isopropyl-phenoxymethyl)-1H-benzoimidazol-5-yl]-N-methyl-benzenesulfonamide] | 7.8 | 100 |
| CNS(=O)(=O)c1ccccc1-c1ccc2[nH]c(COc3cccc(C(F)(F)F)c3)nc2c1 [Cpd 52, N-methyl-2-[2-(3-trifluoromethyl-phenoxymethyl)-1H-benzoimidazol-5-yl]-benzenesulfonamide] | 35 | 99 |
| CS(=O)(=O)c1ccccc1-c1ccc2[nH]c(COc3ccccc3)nc2c1 [Cpd 53, 5-(2-methanesulfonyl-phenyl)-2-phenoxymethyl-1H-benzoimidazole] |  | 17 |
| CS(=O)(=O)c1ccccc1-c1ccc2[nH]c(COc3ccccc3F)nc2c1 [Cpd 54, 2-(2-fluoro-phenoxymethyl)-5-(2-methanesulfonyl-phenyl)-1H-benzoimidazole] |  | 4 |
| CS(=O)(=O)c1ccccc1-c1ccc2[nH]c(COc3cccc(F)c3)nc2c1 [Cpd 55, 2-(3-fluoro-phenoxymethyl)-5-(2-methanesulfonyl-phenyl)-1H-benzoimidazole] |  | 20 |
| CS(=O)(=O)c1ccccc1-c1ccc2[nH]c(COc3ccc(F)cc3)nc2c1 [Cpd 56, 2-(4-fluoro-phenoxymethyl)-5-(2-methanesulfonyl-phenyl)-1H-benzoimidazole] |  | 31 |
| CS(=O)(=O)c1ccccc1-c1ccc2[nH]c(COc3ccccc3Cl)nc2c1 [Cpd 57, 2-(2-chloro-phenoxymethyl)-5-(2-methanesulfonyl-phenyl)-1H-benzoimidazole] |  | 14 |
| CS(=O)(=O)c1ccccc1-c1ccc2[nH]c(COc3cccc(Cl)c3)nc2c1 [Cpd 58, 2-(3-chloro-phenoxymethyl)-5-(2-methanesulfonyl-phenyl)-1H-benzoimidazole] |  | 22 |
| CS(=O)(=O)c1ccccc1-c1ccc2[nH]c(COc3ccc(Cl)cc3)nc2c1 [Cpd 59, 2-(4-chloro-phenoxymethyl)-5-(2-methanesulfonyl-phenyl)-1H-benzoimidazole] | 18 | 87 |
| CS(=O)(=O)c1ccccc1-c1ccc2[nH]c(COc3cccc(Br)c3)nc2c1 [Cpd 60, 2-(3-bromo-phenoxymethyl)-5-(2-methanesulfonyl-phenyl)-1H-benzoimidazole] |  | 49 |
